Key:
Test in all cases: relative viability (nuclei count vs DMSO), 5 days (fraction); higher = more cells survive
[1] = compound: CC(C)C[C@@H](C(=O)N[C@H](C(=O)OC1CCCC1)c1ccccc1)[C@H](O)C(=O)NO [Tosedostat] + NC(=O)Nc1cc(-c2cccc(F)c2)sc1C(=O)N[C@H]1CCCNC1 [AZD7762] (partner 0.2 µM)
Method in brief: (§1)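 The day after seeding in 1536-well plates, lung cancer cell lines were treated by pin tool with a single drug, or with a fixed anchor-drug dose together with five library-drug doses (not always all listed) in √10 steps. After 5 days, a combined fix-and-stain solution (final 0.05% Triton X-100, 1% formaldehyde, 1 ug/ml Hoechst) was added. Nuclei counted on 4× images gave relative viability as treated counts over vehicle counts, reported as the median of duplicate plates.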

[2] = compound: CC(C)C[C@@H](C(=O)N[C@H](C(=O)OC1CCCC1)c1ccccc1)[C@H](O)C(=O)NO [Tosedostat] + O=C(c1cc(Cc2n[nH]c(=O)c3ccccc23)ccc1F)N1CCN(C(=O)C2CC2)CC1 [Olaparib] (partner 8 µM)
Method in brief: as §1

[3] = compound: CC1=NN=C(O1)C2=NN=C(C=C2)N3CCC(CC3)OC4=C(C=CC(=C4)F)Cl + COc1cc2c(Oc3ccc(NC(=O)C4(C(=O)Nc5ccc(F)cc5)CC4)cc3F)ccnc2cc1OCCCN1CCOCC1 [Foretinib] (partner 0.25 µM)
Method in brief: as §1

[4] = compound: CC1=NN=C(O1)C2=NN=C(C=C2)N3CCC(CC3)OC4=C(C=CC(=C4)F)Cl + C[C@@H](Oc1cc(-c2cnn(C3CCNCC3)c2)cnc1N)c1c(Cl)ccc(F)c1Cl [Crizotinib] (partner 1 µM)
Method in brief: as §1

| Cell Line | relative viability ([1]; first compound 0.02 µM) | relative viability ([1]; first compound 0.06325 µM) | relative viability ([1]; first compound 0.2 µM) | relative viability ([1]; first compound 0.6325 µM) | relative viability ([1]; first compound 2 µM) | relative viability ([2]; first compound 0.02 µM) | relative viability ([2]; first compound 0.06325 µM) | relative viability ([2]; first compound 0.2 µM) | relative viability ([2]; first compound 0.6325 µM) | relative viability ([2]; first compound 2 µM) | relative viability ([3]; first compound 0.253 µM) | relative viability ([3]; first compound 0.8 µM) | relative viability ([3]; first compound 2.53 µM) | relative viability ([3]; first compound 8 µM) | relative viability ([4]; first compound 0.253 µM) | relative viability ([4]; first compound 0.8 µM) | relative viability ([4]; first compound 2.53 µM) | relative viability ([4]; first compound 8 µM) |
| --- | --- | --- | --- | --- | --- | --- | --- | --- | --- | --- | --- | --- | --- | --- | --- | --- | --- | --- |
| HCC-15 | 1.25 | 1.17 | 1.29 | 1.31 | 1.15 | 0.799 | 0.723 | 0.62 | 0.495 | 0.44 | 0.538 | 0.476 | 0.405 | 0.446 | 0.42 | 0.405 | 0.374 | 0.36 |
| HCC-44 | 1.08 | 1 | 1.03 | 1.06 | 0.965 | 0.965 | 0.984 | 0.97 | 0.949 | 0.916 | – | – | – | – | 0.451 | 0.392 | 0.431 | 0.373 |
| IA-LM | – | – | – | – | – | 0.839 | 0.869 | 0.655 | 0.814 | 0.662 | 0.164 | 0.158 | 0.171 | 0.167 | 0.415 | 0.266 | 0.288 | 0.34 |
| NCI-H520 | – | – | – | – | – | 0.402 | 0.362 | 0.293 | 0.301 | 0.304 | 0.653 | – | 0.757 | 0.77 | 0.692 | 0.707 | 0.694 | 0.632 |
| NCI-H522 | 0.901 | 0.907 | 0.953 | 0.827 | 0.738 | 0.637 | 0.644 | 0.658 | 0.788 | 0.637 | – | – | – | – | – | – | – | – |
| NCI-H661 | – | – | – | – | – | 0.814 | 0.723 | 0.75 | 0.72 | 0.724 | 0.912 | 0.845 | 0.837 | 0.731 | 0.609 | 0.661 | 0.711 | 0.747 |
| NCI-H1299 | – | – | – | – | – | 1.04 | 0.947 | 0.954 | 0.864 | 0.835 | 1.09 | 1.08 | 1.05 | 1.02 | 0.785 | 0.711 | 0.756 | 0.689 |
| NCI-H1395 | 0.429 | 0.42 | 0.414 | 0.398 | 0.38 | 0.461 | 0.463 | 0.469 | 0.412 | 0.402 | 0.939 | 0.901 | 0.969 | 0.893 | – | – | – | – |
| NCI-H1563 | – | – | – | – | – | – | – | – | – | – | 0.925 | 0.866 | 0.931 | 0.951 | 0.861 | 0.858 | 0.837 | 0.868 |
| NCI-H1623 | – | – | – | – | – | – | – | – | – | – | 0.717 | 0.669 | 0.771 | 0.781 | – | – | – | – |
| NCI-H1648 | 0.678 | 0.735 | 0.768 | 0.538 | 0.509 | 0.799 | 0.644 | 0.764 | 0.875 | 0.587 | – | – | – | – | – | – | – | – |
| NCI-H1650 | – | – | – | – | – | 0.768 | 0.732 | 0.754 | 0.515 | 0.594 | – | 0.928 | 0.998 | 0.852 | – | 0.748 | 0.806 | 0.803 |
| NCI-H1792 | 0.523 | 0.77 | 0.606 | 0.644 | 0.586 | 0.481 | 0.425 | 0.386 | 0.317 | 0.432 | – | – | – | – | 0.414 | 0.447 | 0.378 | 0.451 |
| NCI-H1793 | 0.458 | 0.584 | 0.546 | 0.231 | 0.338 | 0.884 | 0.879 | 0.763 | 0.698 | 0.669 | 0.448 | 0.639 | 0.565 | 0.621 | – | – | – | – |
| NCI-H2009 | – | – | – | – | – | 0.702 | 0.592 | 0.661 | 0.603 | 0.544 | 0.711 | 0.667 | 0.644 | 0.636 | 0.565 | 0.529 | 0.547 | 0.465 |
| NCI-H2023 | – | – | – | – | – | 0.509 | 0.424 | 0.332 | 0.348 | 0.372 | 0.594 | 0.613 | 0.64 | 0.619 | 0.453 | 0.493 | 0.455 | 0.441 |
| NCI-H2228 | – | – | – | – | – | 0.735 | 0.56 | 0.518 | 0.598 | 0.272 | 0.723 | 0.66 | 0.845 | 0.632 | 0.357 | 0.408 | 0.533 | 0.42 |
| NCI-H2342 | 0.512 | 0.599 | 0.446 | 0.41 | 0.432 | 0.401 | 0.392 | 0.444 | 0.295 | 0.373 | 0.671 | 0.627 | 0.684 | 0.545 | – | – | – | – |
| SK-LU-1 | – | – | – | – | – | 0.467 | 0.45 | 0.335 | 0.391 | 0.367 | 0.698 | – | 0.696 | 0.557 | 0.895 | 0.732 | 0.826 | 0.589 |
| SK-MES-1 | – | – | – | – | – | 0.719 | 0.672 | 0.698 | 0.601 | 0.404 | 0.824 | 0.835 | 0.939 | 0.855 | 0.773 | 0.807 | 0.81 | 0.724 |
| SW 900 | 0.56 | 0.603 | 0.644 | 0.661 | 0.556 | 0.784 | 1.02 | 0.983 | 0.752 | 0.629 | – | – | 0.822 | 0.73 | – | – | – | – |
| SW 1573 | – | – | – | – | – | 0.493 | 0.42 | 0.363 | 0.372 | 0.281 | 0.99 | 0.86 | 0.909 | 0.569 | 0.777 | 0.827 | 0.795 | 0.664 |

Source: the supplement of paper PMC10307832
